How the values were obtained:
Type in all cases: cell-based
[1] = target: T1, thromboxane receptor sites (Oryctolagus cuniculus, UniProt Q6WQI8); assay: Rabbit Aorta System (inhibition of tension response of spiral strips of thoracic aorta to 11,9-(epoxymethano) PGH2); conditions: for Kb: Gaddum-Schild Equation, agonist 11,9-(epoxymethano) PGH2, compound added 50 minutes before agonist, 37° C, typical values, read-out: Affinity Constants (KB) Rabbit Aorta (converted)
T1 construct: contraction to 11,9-(epoxymethano) PGH2 (U-46619)
T1 sequence (Q6WQI8 1-233): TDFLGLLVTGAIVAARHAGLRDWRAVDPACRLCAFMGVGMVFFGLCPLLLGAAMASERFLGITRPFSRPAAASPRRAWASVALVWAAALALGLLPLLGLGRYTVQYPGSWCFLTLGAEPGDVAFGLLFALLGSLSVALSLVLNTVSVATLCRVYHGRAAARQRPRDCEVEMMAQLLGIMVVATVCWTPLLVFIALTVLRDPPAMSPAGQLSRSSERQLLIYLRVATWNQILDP
Protocol: (§1) The compound of Example 2 and various of the compounds of Example 8 are tested in the following three systems.
Sprial strips of thoracic aorta are suspended in Kreb's-Henseleit solution aerated with 95% O2 /5% CO2 and maintained at 37° C. Tension changes are recorded with a Grass FTO3 force transducer. Initially, cumulative dose response curves to the agonist 11,9-(epoxymethano) PGH2 are obtained (typically at concentrations of 2×10^-9, 1×10^-8, 5×10^-8 and 2.5×10^-7 M). In a second experiment, the compound under test is added 50 minutes previous to the addition of the series of agonist doses.
(§2) In the case of each system, the affinity constant, KB, for the compound under test is calculated according to the Gaddum-Schild Equation (based on Law of Mass Action). [formula]

[2] = target: T2, thromboxane receptor sites (Homo sapiens, UniProt P21731); assay: Human Platelet System (inhibition of aggregation by 11,9-(epoxymethano) PGH2 in platelet-rich plasma); conditions: Gaddum-Schild Equation, agonist 11,9-(epoxymethano) PGH2, compound added 5 minutes before agonist, typical values, read-out: Affinity Constants (KB) Human Platelets (converted)
T2 construct: Platelet-rich plasma is obtained from fresh, citrated human blood; endogenous in cells; host or cells: human platelets in platelet-rich plasma from fresh citrated blood
T2 sequence (P21731 1-343): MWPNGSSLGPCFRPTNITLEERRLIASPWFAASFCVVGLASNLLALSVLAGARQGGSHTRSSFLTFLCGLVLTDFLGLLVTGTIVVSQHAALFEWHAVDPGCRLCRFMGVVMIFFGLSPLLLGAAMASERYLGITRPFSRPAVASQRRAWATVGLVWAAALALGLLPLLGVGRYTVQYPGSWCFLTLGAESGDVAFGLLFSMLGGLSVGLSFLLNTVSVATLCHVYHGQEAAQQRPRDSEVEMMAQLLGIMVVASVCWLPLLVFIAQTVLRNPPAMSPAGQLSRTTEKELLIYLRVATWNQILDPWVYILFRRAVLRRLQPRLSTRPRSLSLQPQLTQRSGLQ
Protocol: as §1
Platelet-rich plasma is obtained from fresh, citrated human blood. Addition of the agonist 11,9-(epoxymethano) PGH2 (1×10^-7 to 5×10^-7 M) causes immediate aggregation recorded as an increase in light transmission (600 nm). In a second experiment the compound under test is added 5 minutes previous to the addition to the PGH2 analogue. The dose of the PGH2 analogue added is then increased to a level which gives a similar response to that obtained in the absence of antagonist.
as §2

[3] = target: T3, thromboxane receptor sites (Cavia porcellus, UniProt A0A286Y4I8); assay: Guinea Pig Trachea System (inhibition of tension response of spiral strips of trachea to 11,9-(epoxymethano) PGH2); conditions: Gaddum-Schild Equation; agonist 11,9-(epoxymethano) PGH2; atropine sulphate and indomethacin present; compound added 50 minutes before agonist; 37° C; typical values; read-out: Affinity Constants (KB) Guinea Pig Trachea (converted)
T3 construct: from tissue; host or cells: guinea pig trachea, spiral strips
T3 sequence (A0A286Y4I8 1-347): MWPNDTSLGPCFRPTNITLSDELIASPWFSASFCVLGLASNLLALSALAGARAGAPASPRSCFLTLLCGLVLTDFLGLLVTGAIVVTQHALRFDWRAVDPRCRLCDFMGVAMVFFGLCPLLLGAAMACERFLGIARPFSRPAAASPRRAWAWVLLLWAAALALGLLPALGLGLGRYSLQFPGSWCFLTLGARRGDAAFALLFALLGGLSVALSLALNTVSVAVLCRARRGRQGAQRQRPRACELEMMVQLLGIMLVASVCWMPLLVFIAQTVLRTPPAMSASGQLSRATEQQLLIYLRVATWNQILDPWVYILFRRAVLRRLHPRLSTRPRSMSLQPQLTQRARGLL
Protocol: as §1
Guinea Pig Trachea System
Spiral strips of trachea are suspended in Kreb's-Henseleit solution, additionally containing atropine sulphate (2×10^-8 M) and indomethacin (10^-6), aerated with 95% O2 /5% CO2 and maintained at 37° C. Tension changes are recorded with a Grass FTO3 force transducer. Initially, cumulative dose response curves to the agonist 11,9-(epoxymethano) PGH2 are obtained (typically at the same concentrations as for the rabbit aorta system). In a second experiment, the compound under test is added 50 minutes previous to the addition of the series of agonist doses.
as §2

Kb [1]	Kb [2]	Kb [3]	pure antagonist activity in the rabbit aorta system ([1]; in words)	Structure (SMILES)
1050 nM	5000 nM	123 nM		COc1ccc(NC(=S)NC(C)CC2C3C=CC(C3)C2C/C=C\CCCC(=O)O)cc1 (centres unmarked) [--CH2 CH(CH3)NHCSNHC6 H4 OCH3 (p)]
1000 nM	3570 nM	323 nM	pure antagonist activity	O=C(O)CCC/C=C\C[C@H]1[C@H]2CC[C@H](C2)[C@@H]1CNC(=O)Nc1ccccc1 (relative stereo) [--CH2 NHCONHC6 H5, 5-endo-(6'-Carboxyhex-2'Z-enyl)-6-exo-[N-(phenylcarbamoyl)-aminomethyl]-bicyclo[2,2,1]heptane]
169 nM	13900 nM	154 nM		COc1ccc(NC(=S)NCC2C3C=CC(C3)C2C/C=C\CCCC(=O)O)cc1 (centres unmarked) [--CH2 NHCSNHC6 H4 OCH3 (p)]
345 nM	29400 nM	196 nM		O=C(O)CCC/C=C\CC1C2C=CC(C2)C1CCNC(=O)Nc1ccccc1 (centres unmarked) [--(CH2)2 NHCONHC6 H5]
526 nM	12500 nM			COc1ccc(NC(=S)NCCC2C3C=CC(C3)C2C/C=C\CCCC(=O)O)cc1 (centres unmarked) [--(CH2)2 NHCSNHC6 H4 OCH3 (p)]
833 nM		145 nM		COc1ccc(NC(=O)NCCC2C3C=CC(C3)C2C/C=C\CCCC(=O)O)cc1 (centres unmarked) [--(CH2)2 NHCONHC6 H4 OCH3 (p)]
